The subject of one test is TOV21G. Description: Cell viability after VS-6766 treatment, TOV21G. In kind it is cell-based, human. Particulars: 48 hours.
For the next test, the system named is IGR-1. Description: Cell viability after VS-6766 treatment, IGR-1. It counts as cell-based, human. Particulars: IGR-1, 48 hours.
Another test has as its system A549. Nature of the test: Cell viability after VS-6766 treatment, A549. In kind it is cell-based, human. Particulars: A549, 48 hours.
Another test concerns WM115. Nature of the test: Cell viability after VS-6766 treatment, WM115. It counts as cell-based, human. Particulars: WM115, 48 hours.
Test [1] deals with KRAS/BRAF mutant human cancer cell lines. Nature of the test: RNA extraction and qRT-PCR of MHC-I antigen presentation genes. Particulars: FIG. 1. In kind it is cell-based. The procedure:
RNA Extraction and qRT-PCR
Cells were seeded into 6-cm dishes and after an incubate overnight (17~22 hrs) cells were treated with VS-6766 for 48 hours at a concentration that gave an 80% cell viability (1 μM for A549, TOV21G and WM115, and 300 nM for SKMEL5 and IGR-1). RNA was extracted using RNeasy® Plus Mini kit (Qiagen) and converted to cDNA using the cDNA by High-Capacity cDNA Reverse Transcription Kit (Applied Biosystems). TaqMan qPCR was run using HLA-A, B2M, TAP1 and TAP-2 probes from Applied Biosystems. VIC-GAPDH probe as the house keeping gene. Each PCR reaction will be run in triplicate wells. Expression levels were computed as the difference (ΔCT) between the target gene CT and GAPDH CT.
A general note: Quantitative PCR measures a nucleic acid by following its amplification.

The subject of test [2] is CT26 KRAS (G12D)-mutant colorectal cancer mouse models. Nature of the test: Syngeneic CT26 tumor mouse study, VS-6766 and/or anti-PD-1. In kind it is in vivo. Particulars: VS-6766 0.5 mg/kg PO QD x 28 days; anti-PD-1 60 μg/mouse (3 mg/kg) IP BIW x 4 doses; Balb/c mice; FIG. 2A, 2B. The procedure:
CT26 tumor cells were obtained from ATCC and Balb/c mice were obtained from Shanghai Lingchang Biotechnology. Tumor challenge was initiated by subcutaneous inoculation of 3×10^5 CT26 tumor cell suspensions into the right flank of recipient mice. Tumor sizes (mm3) were measured and calculated as described above. Once tumors reached an average volume of 50-80 mm3, mice were sorted into 4 groups (n=10): vehicle (5% DMSO, 10% HPCD in sterile water, oral dosing (PO), once per day (QD), 28 days)+isotype control ([…] intraperitoneally (IP) biweekly, 4 doses; rat IgG2a clone 2A3, BioXcell), VS-6766 (0.5 mg/kg PO QD, 28 days)+isotype control, anti-PD-1 (60 μg/mouse IP biweekly, 4 doses; clone RMP1-14, BioXCell), and VS-6766+anti-PD-1. Tumors and body weights were measured 3 times per week for the duration of the study. At the time of routine monitoring, the animals were checked for any effects of tumor growth and treatments on normal behavior such as mobility, food and water consumption (by looking only), and body weight gain/loss, eye/hair matting and any other abnormal effect. For Kaplan-Meier analysis, an event was defined by death or tumor growth beyond 2,000 mm^3.

The test system of a further test is SKMEL5. Nature of the test: Cell viability after VS-6766 treatment, SKMEL5. Conditions: SKMEL5, 48 hours. It counts as cell-based, human.

Consider one molecule from US20260199339A1, “COMBINATION THERAPY FOR TREATING ABNORMAL CELL GROWTH” (Verastem, Inc., priority 2020, published 2026).

“Also recorded” adds a separate entry of the source.

Take `CNS(=O)(=O)Nc1nccc(Cc2c(C)c3ccc(Oc4ncccn4)cc3oc2=O)c1F` [VS-6766]: the “concentration that gave an 80% cell viability” value in the test with TOV21G was found to be 1 µM; in the test with IGR-1, 300 nM; in the test on A549 it was 1 µM; with WM115 it was 1 µM; in the test on SKMEL5, 300 nM. In addition, the HLA-A expression result in test [1] (48 h, qRT-PCR) is recorded as “increased”. Moreover, the TAP1 expression result in test [1] (48 h, qRT-PCR) is “increased”. For the same molecule, in test [1] (48 h, qRT-PCR), the TAP2 expression result is “increased”. For the same molecule, the β2M expression entry in test [1] (48 h, qRT-PCR) is reported as “increased”. Also, the “tumor antigen presentation (markers associated with antigen presentation, MHC-I expression)” value in test [1] (multiple KRAS/BRAF mutant human cancer cell lines) is “increase tumor antigen presentation; also recorded: upregulates”. In addition, the “tumor growth / antitumor efficacy (tumor volume)” value in test [2] is on record as “delay tumor growth”.
